We go through 11 compounds from PubChem BioAssay AID2060352 (Molecular Pharmacology Branch, DTP, NCI, 2025).

Several values for one entry are separate records, joined by “and”; a condition that tells them apart may be missing. Equal values may be shown once.

In this assay the test system is 616215-338-R-J1-PDC spheroid with HUVEC/MSC, viability. Kind of assay: Anticancer human tumor 616215-338-R-J1-PDC patient-derived colon adenocarcinoma cell line growth inhibition [TAK]. The note with it: for viability, T/C: stronger effect = lower value. The text has this:
Combinatorial screen of targeted agents with TAK-243 and ipatasertib in multi-cell type tumor spheroids
A high-throughput screen of multi-cell type tumor spheroids was designed to identify active combinations of targeted small molecules and TAK-243 or ipatasertib. Complex spheroids include a stromal component modeled by human endothelial cells (HUVEC) and fibroblasts modeled by human mesenchymal stem cells (MSCs). The concentration ranges selected for each drug and investigational agent were based upon clinically achievable concentrations if the clinical Cmax of the agent was known.
Compounds. The drugs and investigational agents: TAK-243 (785004), ipatasertib (767898), everolimus (733504), selumetinib (741078), bortezomib (756655), trametinib (758246), ixazomib (758254), vemurafenib (761431), dabrafenib (764134), sapanisertib (764658), alpelisib (765974), and copanlisib (816437), were obtained from the National Cancer Institute (NCI) Developmental Therapeutics Program Chemical Repository. The FDA-approved anticancer drug set is available from the NCI Developmental Therapeutics Program. […] The stock solutions were prepared in dimethyl sulfoxide (DMSO, Sigma-Aldrich, St. Louis, MO, cat. D2650) at 800-fold the tested concentration and stored at -70 degrees C prior to their use. All drugs and investigational agents were tested over a range starting from a high concentration at or near the clinical Cmax and decreasing in half-log increments. If the clinical Cmax for an agent had not been determined, the highest concentration tested was 10 microM.
NCI60 Cell Culture. NCI60 cell lines were obtained from the NCI Developmental Therapeutics Program Tumor Repository. For each lot of cells, the Repository performed Applied Biosystems AmpFLSTR Identifiler testing with PCR amplification to confirm consistency with the published Identifier STR profile for each cell line. Cells were kept in continuous culture for no more than 20 passages. The optimal seeding densities for each of the cell lines at each time point assessed were determined prior to performing the concentration response studies. Briefly, the NCI60 human tumor lines were grown as monolayers in RPMI 1640 medium supplemented with 10% FBS and 2 mmol/L L-glutamine.
An additional 2 lines were from the NCI60 cell line panel including melanomas, MALME-3M and SK-MEL-2. Pooled donor human umbilical vein endothelial cells (HUVEC, Lonza, cat. CC-2519) and human mesenchymal stem cells (hMSC, Lonza, cat. PT-2501) were purchased from Lonza (Walkersville, MD).
PDMR cell lines were grown in complete medium (DC medium): Dulbecco's modified Eagle's medium (DMEM)/F12 supplemented with 5% fetal bovine serum (FBS), 2 mM L-glutamine, 100 U/mL penicillin and 100 µg/ml streptomycin, 0.4 µg/ml hydrocortisone, 10 ng/ml epidermal growth factor (EGF) recombinant human protein, 24 µg/mL adenine, and 0.1 mg/mL primocin. During culture from frozen stock vials, PDMR cells were cultured in the same medium containing 10 µM Y-27632 (see Table 3). The PDCs were cultured in complete DMEM/F12 media without 10 microM Y-27632 dihydrochloride for at least two passages prior to the screen. The pooled donor HUVEC and hMSC were cultured in endothelial cell growth medium 2 (PromoCell, Heidelberg, Germany, cat. C-22011) and mesenchymal stem cell growth medium 2 (PromoCell, cat. C-28009), respectively. For all experiments, HUVEC and hMSC were used at passages </=5.
For the pre-screen, cell seeding densities were determined from a titration spanning the range from 5,000 to 313 cells per well. The mct-spheroids including 60% malignant cells, 25% HUVEC and 15% MSC dispensed as a mixture into U-bottom Ultra-Low Attachment 384-well plates (Corning, NY)
High-throughput Drug Combination Screening.
Prior to their inoculation into 384-well plates, malignant cells, HUVEC, and hMSC were removed from T flasks using TrypLE express (Thermo Fisher Scientific, cat. 12605036) and harvested by centrifugation for 5 min at 233 x g. […]
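Further: spheroids exposed to drugs for 7 days before readout.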

As to `CC(=O)Nc1cccc(-n2c(=O)n(C3CC3)c(=O)c3c(Nc4ccc(I)cc4F)n(C)c(=O)c(C)c32)c1`, the viability, T/C (commonly the ratio of treated to control) runs as follows: (compound 94.9 pM) 97% and 104%; (compound 0.0003 µM) 110% and 106%; (compound 0.000949 µM) 134% and 90.8%; (compound 0.003 µM) 90.5% and 64%; (compound 0.00949 µM) 33.2% and 29.1%; (compound 0.03 µM) 5.55% and 17.7%. Also, the half-inhibitory concentration (IC50) – broadly, the concentration that gives 50% inhibition – (curve of compound) was 6.78 nM and 4.71 nM.
Consider `CC(C)(C)c1nc(-c2cccc(NS(=O)(=O)c3c(F)cccc3F)c2F)c(-c2ccnc(N)n2)s1`, for which the viability, T/C runs as follows: (compound 0.0316 µM) 104% and 106%; (compound 0.1 µM) 123% and 114%; (compound 0.316 µM) 132% and 107%; (compound 1 µM) 119% and 95.5%; (compound 3.16 µM) 73.2% and 54.6%; (compound 10 µM) 18.3% and 28.5%. Also, under “curve of compound”, the half-inhibitory concentration (IC50) was 5150 nM and 3870 nM.
On to `CC(C)CC(NC(=O)C(Cc1ccccc1)NC(=O)c1cnccn1)B(O)O` (configuration not stated), for which the viability, T/C reads like this: (compound 31.6 pM) 98.1% and 102%; (compound 0.0001 µM) 115% and 110%; (compound 0.000316 µM) 101% and 108%; (compound 0.001 µM) 92.3% and 103%; (compound 0.00316 µM) 107% and 102%. The IC50 (curve of compound) was > 10 nM and 5.79 nM.
Consider `CC(C)CC(NC(=O)CNC(=O)c1cc(Cl)ccc1Cl)B1OC(=O)CC(CC(=O)O)(C(=O)O)O1` (configuration not stated), for which the viability, T/C is 93.3% and 102% (compound 0.000316 µM); 97.9% and 110% (compound 0.001 µM); 104% and 111% (compound 0.00316 µM); 95.5% and 107% (compound 0.01 µM); 7.86% and 10.7% (compound 0.0316 µM); 0.16% and 0.17% (compound 0.1 µM). Under “curve of compound”, the half-inhibitory concentration (IC50) is 18.2 nM and 19.7 nM.
With `CC(C)NCC(C(=O)N1CCN(c2ncnc3c2C(C)CC3O)CC1)c1ccc(Cl)cc1` (configuration not stated), the viability, T/C is, setting by setting: (compound 9.49 µM) 26.9% [middle of 10 runs]; (compound 30 µM) 12.7% [middle of 10 runs]. Besides, the IC50 reads like this: (compound alone, run of 02/20/2020) 6.46 µM [middle of 5 runs]; (compound alone, run of 03/19/2020) 5.01 µM [middle of 5 runs].
For the compound `CC(C)n1nc(-c2ccc3oc(N)nc3c2)c2c(N)ncnc21`, the viability, T/C runs as follows: (compound 0.000316 µM) 95.9% and 105%; (compound 0.001 µM) 115% and 107%; (compound 0.00316 µM) 99.9% and 114%; (compound 0.01 µM) 112% and 130%; (compound 0.0316 µM) 127% and 146%; (compound 0.1 µM) 94% and 38%. Moreover, the IC50 (curve of compound) was > 100 nM and 84.7 nM.
For `CCCS(=O)(=O)Nc1ccc(F)c(C(=O)c2c[nH]c3ncc(-c4ccc(Cl)cc4)cc23)c1F`, the viability, T/C reads like this: (compound 0.316 µM) 110% and 87.2%; (compound 1 µM) 99.9% and 99.5%; (compound 3.16 µM) 90.2% and 81%; (compound 10 µM) 16.4% and 24.1%; (compound 31.6 µM) 106% and 4.96%; (compound 100 µM) 64.9% and 98.7%.
As for `COC1CC2CCC(C)C(O)(O2)C(=O)C(=O)N2CCCCC2C(=O)OC(C(C)CC2CCC(OCCO)C(OC)C2)CC(=O)C(C)C=C(C)C(O)C(OC)C(=O)C(C)CC(C)C=CC=CC=C1C` (configuration not stated), the viability, T/C (compound 0.000316 µM) was 98.5% and 109%; the viability, T/C (compound 0.001 µM) is 93.9% and 116%; the viability, T/C (compound 0.00316 µM) was 96.7% and 111%; the viability, T/C (compound 0.01 µM) was 107% and 112%; the viability, T/C (compound 0.0316 µM) is 110% and 117%; the viability, T/C (compound 0.1 µM) is 110% and 83%. For the same compound, the IC50 (curve of compound) is over 100 nM.
As to `COc1c(OCCCN2CCOCC2)ccc2c3n(c(=NC(=O)c4cnc(N)nc4)nc12)CCN3`, the viability, T/C runs as follows: (compound 0.00316 µM) 108% and 106%; (compound 0.01 µM) 108% and 113%; (compound 0.0316 µM) 117% and 114%; (compound 0.1 µM) 57.7% and 54.2%; (compound 0.316 µM) 27.8% and 31.5%; (compound 1 µM) 17.4% and 16.5%. The half-inhibitory concentration (IC50) (curve of compound) is 129 nM and 118 nM.
`Cc1nc(NC(=O)N2CCCC2C(N)=O)sc1-c1ccnc(C(C)(C)C(F)(F)F)c1` (configuration not stated): the viability, T/C by setting is: (compound 0.0316 µM) 118% and 104%; (compound 0.1 µM) 107% and 117%; (compound 0.316 µM) 120% and 111%; (compound 1 µM) 105% and 108%; (compound 3.16 µM) 106% and 111%; (compound 10 µM) 106% and 91.4%. Moreover, the IC50 (curve of compound) is over 10000 nM.
As for `Cn1cnc2c(F)c(Nc3ccc(Br)cc3Cl)c(C(=O)NOCCO)cc21`, the viability, T/C (compound 0.00949 µM) is 115% and 123%; the viability, T/C (compound 0.03 µM) was 109% and 107%; the viability, T/C (compound 0.0949 µM) is 98.8% and 134%; the viability, T/C (compound 0.3 µM) is 64.2% and 90.9%; the viability, T/C (compound 0.949 µM) is 43.6% and 36.8%; the viability, T/C (compound 3 µM) is 28.2% and 22.3%. Where the note is “curve of compound”, the half-inhibitory concentration (IC50) is 632 nM and 695 nM.
